{"source": "paper PMC8538513", "about": "“Inhibition of Matrix Metalloproteinases and Cancer Cell Detachment by Ru(II) Polypyridyl Complexes Containing 4,7-Diphenyl-1,10-phenanthroline Ligands—New Candidates for Antimetastatic Agents” (Pharmaceuticals, 2021)", "key": {"[1]": {"tested_on": "A549 cells", "details": "cited from earlier work"}, "[2]": {"tested_on": "A549 cells", "test": "Trypsin resistance assay (cell adherence)", "format": "cell-based, human", "method": "Cells susceptibility to detachment upon incubation with the studied compounds was evaluated by checking their resistance to trypsin treatment. Cells were seeded into 96-well plate with the density of 3 × 10^4 cells per cm^2 in complete medium and cultured for 24 h. Then, cells were incubated with various concentrations of the studied compounds for 24 h. Subsequently, the cells were washed and 30 µL trypsin solution (0.05%) was added to each well for 10 min incubation at 37 °C. Next, cells were washed with PBS and Alamar Blue assay was performed to quantify adherent cells. The received results were normalized with appropriate wells without the trypsin treatment to exclude the possible toxicity of the studied compounds and presented as a percentage of control (untreated) cells. Experiments were performed in triplicates and each experiment was repeated five times to obtain mean values and standard error of the mean."}, "[3]": {"tested_on": "MMP-9", "test": "Western blot, expression of the active form of MMP-9", "format": "cell-based, human", "details": "A549 cells, 24 h, 100 µM, normalized to β-actin", "method": "A549 cells were seeded in a 25 cm^2 flask with the density of 1.25 × 10^6 cells per flask in complete medium and cultured for 24 h. […] After the incubation, cells were washed with ice-cold PBS and lysed using RIPA buffer containing Halt proteases inhibitor cocktail (Thermo Fisher Scientific). Protein samples (the same concentration per lane) were separated on a 12% sodium dodecyl sulfate polyacrylamide gel. PageRuler™ Prestained Protein Ladder (Thermo Fisher Scientific) was used to determine approximate molecular weights of resolved proteins. Electrophoresis was performed through the stacking gel for 25 min at 60 V and resolving gel for 50 min at 170 V at room temperature using a PowerPac™ Basic Power Supply (Bio-Rad, Inc., Hercules, CA, USA). […] Reactive protein was detected after membrane was washed three times in TBST using GE Healthcare Amersham™ ECL Prime Western Blotting Detection Reagent (GE Healthcare Inc., Chicago, IL, USA). Only one protein was detected at a time, each membrane was stripped in 0.2 M NaOH over 20 min, washed three times in water and blocked again before proceeding with another primary antibody. Data were collected by ChemiDoc XRS+ Imaging System (Bio-Rad, Inc., Hercules, CA, USA) and analyzed with Image Lab v. […]"}, "[4]": {"target": "T1, MMP-2 (Homo sapiens, UniProt P08253)", "T1 construct": "purchased Sigma-Aldrich", "T1 sequence (P08253 110-660)": "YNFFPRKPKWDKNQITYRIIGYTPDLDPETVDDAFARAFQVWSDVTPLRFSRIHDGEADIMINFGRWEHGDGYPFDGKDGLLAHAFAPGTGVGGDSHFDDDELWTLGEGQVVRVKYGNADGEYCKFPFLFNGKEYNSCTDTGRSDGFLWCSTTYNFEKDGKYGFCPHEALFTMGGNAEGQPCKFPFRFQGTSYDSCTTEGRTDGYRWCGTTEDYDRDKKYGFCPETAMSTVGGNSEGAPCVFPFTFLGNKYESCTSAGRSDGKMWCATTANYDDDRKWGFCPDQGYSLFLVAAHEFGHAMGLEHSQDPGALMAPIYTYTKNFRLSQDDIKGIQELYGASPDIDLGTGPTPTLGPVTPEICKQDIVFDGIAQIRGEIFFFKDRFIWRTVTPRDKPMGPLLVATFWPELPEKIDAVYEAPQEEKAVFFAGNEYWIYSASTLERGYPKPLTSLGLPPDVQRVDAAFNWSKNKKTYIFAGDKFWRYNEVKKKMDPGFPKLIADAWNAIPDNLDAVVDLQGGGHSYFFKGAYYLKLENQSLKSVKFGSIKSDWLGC", "test": "MMP-2 inhibition, fluorogenic substrate FS-6", "format": "biochemical", "details": "[FS-6] = 2.5 µM, [enzyme] = 0.5 nM, 0.1 M Tris, pH 7.4, 37 °C; n.i. = no inhibition in the studied range (>> 25 µM, for NAMI-A >> 600 µM)", "method": "(§1) MMP-9 and MMP-2 were activated at 4 °C using 1 mM APMA overnight before the experiments. MMP-2 and MMP-9 assays were performed in 0.1 M Tris/HCl (pH 7.4, 37 °C) enriched with 0.1 M NaCl, 10 mM CaCl2, 0.1 mM ZnCl2 and 0.05% Brij35. […] Kinetic fluorescence measurements were performed using a Perkin Elmer LS55 spectrofluorimeter (λex/λem = 325/400 nm). The obtained fluorescence intensities were corrected due to inner filter effect according to the following equation [31]: […] where Fobs denotes the measured fluorescence intensity, while Aλem and Aλex are the absorbance of sample at emission and excitation wavelengths.\n(§2) The enzyme activity in the presence of inhibitors was expressed as a fraction of initial reaction rate (vi/v0 ratio, v0—initial reaction rate, vi—initial reaction rate in the presence of inhibitor). IC50 parameters were calculated from a dose-response plot of enzyme fractional activity as a function of inhibitor concentration, using the Hill equation (OriginPro2018). Experiments were repeated three times and results are presented as mean values and standard deviation of the mean."}, "[5]": {"target": "T2, MMP-9 (Homo sapiens, UniProt P14780)", "T2 construct": "purchased Sigma-Aldrich", "T2 sequence (P14780 107-707 limits assumed)": "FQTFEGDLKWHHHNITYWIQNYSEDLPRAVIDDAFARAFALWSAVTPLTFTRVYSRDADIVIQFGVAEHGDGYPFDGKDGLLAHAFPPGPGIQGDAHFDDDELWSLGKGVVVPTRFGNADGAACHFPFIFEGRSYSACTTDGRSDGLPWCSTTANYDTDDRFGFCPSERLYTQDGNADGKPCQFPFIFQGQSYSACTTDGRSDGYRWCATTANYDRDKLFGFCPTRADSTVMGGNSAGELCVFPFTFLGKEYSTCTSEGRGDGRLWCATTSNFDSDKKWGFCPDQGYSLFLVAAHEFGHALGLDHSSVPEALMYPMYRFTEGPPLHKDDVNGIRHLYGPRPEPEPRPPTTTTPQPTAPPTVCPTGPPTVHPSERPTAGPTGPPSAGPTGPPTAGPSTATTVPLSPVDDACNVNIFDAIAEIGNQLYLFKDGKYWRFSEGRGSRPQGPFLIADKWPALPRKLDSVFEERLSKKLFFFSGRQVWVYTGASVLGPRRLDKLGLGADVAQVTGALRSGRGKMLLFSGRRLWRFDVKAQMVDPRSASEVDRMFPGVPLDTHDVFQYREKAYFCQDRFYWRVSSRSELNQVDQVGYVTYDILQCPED", "test": "MMP-9 inhibition, fluorogenic substrate FS-6", "format": "biochemical", "details": "[FS-6] = 2.5 µM, [enzyme] = 0.5 nM, 0.1 M Tris, pH 7.4, 37 °C, fluorescence assay; n.i. = no inhibition in the studied range (>> 25 µM, for NAMI-A >> 600 µM)", "method": "as §1, §2"}, "[6]": {"tested_on": "B16F10 melanoma cells", "set-up": "method as in PMID 16368900", "details": "100 µM; cited from earlier work"}, "[7]": {"tested_on": "A549 cells", "test": "Cytotoxicity, MTT assay", "format": "cell-based, human", "method": "In vitro studies were conducted using human lung adenocarcinoma A549 cell line. Cells were routinely cultured in Dulbecco’s Modified Eagle Medium (DMEM, Corning, Corning, NY, USA) supplemented with 10% fetal bovine serum (FBS, Eurx, Gdańsk, Poland) (v/v) and 1% penicillin-streptomycin (100 units/mL–100µg/mL, Corning) (v/v) and incubated at 37 °C in humidified atmosphere with 5% CO2 (v/v). The cytotoxicity of the Ru(II) complexes was evaluated using MTT assay (Sigma-Aldrich). Cells were seeded into 96-well plate with the density of 3 × 10^4 cells per cm^2 in complete medium and cultured for 24 h. Then medium was removed and various concentrations of the studied compounds in basic medium were added. The final DMSO concentration in cell culture was fixed at 0.1% (v/v). […] After the incubation, MTT was removed, and the formed violet formazan crystals were dissolved in the 100 µL of DMSO:methanol (1:1) mixture. […] Experiments were performed in triplicates and repeated three times."}, "[8]": {"tested_on": "A549 cells", "test": "Cellular uptake of ruthenium (ICP-MS)", "format": "cell-based, human", "details": "1 µM complex, 24 h", "method": "For cellular uptake A549 cells were seeded in a 6-well plate with the density of 4 × 10^4 cells per cm^2 in complete medium and cultured for 24 h. […] Any dead cells were eliminated by washing cells’ monolayer with PBS. Subsequently, the incubated cells were washed, detached by trypsin treatment and counted. The cells were isolated by centrifugation and digested in concentrated nitric acid overnight at room temperature. The solutions were diluted with Millipore water to a final nitric acid concentration of 2%. The Ru content in the samples was measured by inductively coupled plasma mass spectrometry (ICP-MS) using NexION 2000C (Perkin Elmer). Experiments were repeated three times. Results were calculated as ruthenium concentration per cell and presented as mean values and standard deviation of mean. Similarly, the content of Ru ions was measured in subcellular fraction obtained as described in chapter 4.5."}}}
{"smiles": "N.N.[Cl][Pt][Cl]", "note": "[cisplatin]", "values": [{"measurement": "IC50", "setting": "[1]", "result": 70, "unit": "µM"}]}
{"smiles": "CS(C)=O.[Cl-].[Cl-].[Cl-].[Cl-].[Ru+3].c1c[nH+]c[nH]1.c1c[nH]cn1", "note": "[NAMI-A, trans-[tetrachlorido(1H-imidazole)(S-dimethylsulphoxide)ruthenate(III)]]", "values": [{"measurement": "Cell adherence (adhesion strength) compared to control", "setting": "[2]; NAMI-A 100 µM", "result": "ca. 250%"}, {"measurement": "Reduction of expression of active MMP-9", "setting": "[3]", "result": 43, "unit": "%"}, {"measurement": "IC50 for MMP-2", "setting": "[4]", "result": "no inhibitory properties and n.i."}, {"measurement": "IC50 for MMP-9", "setting": "[5]", "result": "no inhibitory properties and n.i."}, {"measurement": "Adhesion strength vs. control", "setting": "[6]", "result": "up to 162 % vs. control"}]}
{"smiles": "[Ru+2].c1ccc(-c2ccnc3c2ccc2c(-c4ccccc4)ccnc23)cc1.c1ccc(-c2ccnc3c2ccc2c(-c4ccccc4)ccnc23)cc1.c1ccc(-c2ccnc3c2ccc2c(-c4ccccc4)ccnc23)cc1", "note": "[[Ru(dip)3]^2+]", "values": [{"measurement": "Cytotoxicity (IC50)", "setting": "[7]; 24 h incubation, MTT", "result": "most cytotoxic compound"}, {"measurement": "Increase of ruthenium concentration in a cell (uptake)", "setting": "[8]", "result": "highest uptake by cells"}, {"measurement": "Effect on cell adhesion / cell detachment (in words)", "setting": "[2]; 24 h, non-toxic concentrations, effect seen from 1 µM", "result": "high activity in inhibiting of cell detachment"}, {"measurement": "IC50", "setting": "[4]", "result": "8.3 ± 1.1", "unit": "µM"}, {"measurement": "IC50", "setting": "[5]", "result": "4.1 ± 1.6", "unit": "µM"}]}
{"smiles": "CNC(=O)[C@H](Cc1c[nH]c2ccccc12)NC(=O)[C@@H](CC(=O)NO)CC(C)C", "note": "[GM6001]", "values": [{"measurement": "Toxicity at the concentration used", "setting": "[7]; 1–8 µM", "result": "non-toxic concentration"}, {"measurement": "Effect on cell adhesion properties (in words)", "setting": "[2]; GM6001 1–8 µM", "result": "no alteration in cell adhesion properties was observed"}]}
{"smiles": "[Ru+2].c1ccc(-c2ccccn2)nc1.c1ccc(-c2ccnc3c2ccc2c(-c4ccccc4)ccnc23)cc1.c1ccc(-c2ccnc3c2ccc2c(-c4ccccc4)ccnc23)cc1", "note": "[[Ru(dip)2(bpy)]^2+]", "values": [{"measurement": "IC50", "setting": "[4]", "result": "22.5 ± 2", "unit": "µM"}, {"measurement": "IC50", "setting": "[5]", "result": "6.2 ± 2.8", "unit": "µM"}]}
